ChEMBL document CHEMBL3885881, “DrugMatrix”

Organism: Rattus norvegicus
Test: DrugMatrix - Regimen: Daily Repeat
Format: toxicity, organism-based, Sprague-Dawley
Set-up: regimen Daily Repeat, gender Male, age 6-8 weeks
Settings: in vivo, po, route oral GAVAGE, vehicle 100 % WATER; for ABSOLUTE BASOPHIL / ABSOLUTE EOSINOPHIL / ABSOLUTE LYMPHOCYTE / ABSOLUTE MONOCYTE / ABSOLUTE SEGMENTED NEUTROPHIL / BASOPHIL / EOSINOPHIL / ERYTHROCYTE COUNT / HEMATOCRIT / HEMOGLOBIN / LEUKOCYTE COUNT / LYMPHOCYTE / MEAN CORPUSCULAR HEMOGLOBIN / MEAN CORPUSCULAR HEMOGLOBIN CONCENTRATION / MONOCYTE / NEUTROPHIL / NUCLEATED RED BLOOD CELLS / PLATELET COUNT: tissue Blood; for ALANINE AMINOTRANSFERASE / ALBUMIN / ALKALINE PHOSPHATASE / BLOOD UREA NITROGEN / CARBON DIOXIDE / CHLORIDE / CHOLESTEROL / CREATINE PHOSPHOKINASE / CREATININE / GLUCOSE / LACTATE DEHYDROGENASE / LIPASE / PHOSPHORUS / POTASSIUM / SODIUM / TOTAL BILIRUBIN / TOTAL PROTEIN / URIC ACID: tissue Plasma
[1] = 15 mg/kg, 120 h, dose level Low, time 5 day
[2] = 150 mg/kg, 72 h, dose level High, time 3 day
[3] = 150 mg/kg, 120 h, dose level High, time 5 day

Structure (SMILES): Cc1ccc(NC(=O)c2ccc(CN3CCN(C)CC3)cc2)cc1Nc1nccc(-c2cccnc2)n1 [IMATINIB]
- ABSOLUTE BASOPHIL [1]: 0 CELLS/uL
- ABSOLUTE EOSINOPHIL [1]: 72.33 CELLS/uL
- ABSOLUTE LYMPHOCYTE [1]: 6282 CELLS/uL
- ABSOLUTE MONOCYTE [1]: 25.33 CELLS/uL
- ABSOLUTE SEGMENTED NEUTROPHIL [1]: 653.67 CELLS/uL
- BASOPHIL [1]: 0%
- EOSINOPHIL [1]: 1%
- ERYTHROCYTE COUNT [1]: 5.21 x10E6/uL
- HEMATOCRIT [1]: 33.07%
- HEMOGLOBIN [1]: 12.73 G/DL
- LEUKOCYTE COUNT [1]: 7.03 x10E3/uL
- LYMPHOCYTE [1]: 89.67%
- MEAN CORPUSCULAR HEMOGLOBIN [1]: 24.43 pg
- MEAN CORPUSCULAR HEMOGLOBIN CONCENTRATION [1]: 38.53 G/DL
- MONOCYTE [1]: 0.33%
- NEUTROPHIL [1]: 9%
- NUCLEATED RED BLOOD CELLS [1]: 0 /100WBC
- PLATELET COUNT [1]: 1004.67 x10E3/uL
- ALANINE AMINOTRANSFERASE [1]: 55.67 u/L
- ALBUMIN [1]: 4.2 G/DL
- ALKALINE PHOSPHATASE [1]: 357.67 u/L
- BLOOD UREA NITROGEN [1]: 14.67 mg/dL
- CARBON DIOXIDE [1]: 28 mmol/L
- CHLORIDE [1]: 100.33 MEQ/L
- CHOLESTEROL [1]: 60 mg/dL
- CREATINE PHOSPHOKINASE [1]: 404.33 u/L
- CREATININE [1]: 0.17 mg/dL
- GLUCOSE [1]: 140.33 mg/dL
- LACTATE DEHYDROGENASE [1]: 183.67 u/L
- LIPASE [1]: 8 u/L
- PHOSPHORUS [1]: 11.1 mg/dL
- POTASSIUM [1]: 5.69 MEQ/L
- SODIUM [1]: 145.7 MEQ/L
- TOTAL BILIRUBIN [1]: 0.3 mg/dL
- TOTAL PROTEIN [1]: 6 G/DL
- URIC ACID [1]: 0.73 mg/dL
- ABSOLUTE BASOPHIL [2]: 0 CELLS/uL
- ABSOLUTE EOSINOPHIL [2]: 64 CELLS/uL
- ABSOLUTE LYMPHOCYTE [2]: 9025.33 CELLS/uL
- ABSOLUTE MONOCYTE [2]: 0 CELLS/uL
- ABSOLUTE SEGMENTED NEUTROPHIL [2]: 844 CELLS/uL
- BASOPHIL [2]: 0%
- EOSINOPHIL [2]: 0.67%
- ERYTHROCYTE COUNT [2]: 5.45 x10E6/uL
- HEMATOCRIT [2]: 34.93%
- HEMOGLOBIN [2]: 13 G/DL
- LEUKOCYTE COUNT [2]: 9.93 x10E3/uL
- LYMPHOCYTE [2]: 90.33%
- MEAN CORPUSCULAR HEMOGLOBIN [2]: 23.83 pg
- MEAN CORPUSCULAR HEMOGLOBIN CONCENTRATION [2]: 37.2 G/DL
- MONOCYTE [2]: 0%
- NEUTROPHIL [2]: 9%
- NUCLEATED RED BLOOD CELLS [2]: 0 /100WBC
- PLATELET COUNT [2]: 1243.33 x10E3/uL
- ALANINE AMINOTRANSFERASE [2]: 86 u/L
- ALBUMIN [2]: 4.3 G/DL
- ALKALINE PHOSPHATASE [2]: 449.67 u/L
- BLOOD UREA NITROGEN [2]: 14.67 mg/dL
- CARBON DIOXIDE [2]: 26.33 mmol/L
- CHLORIDE [2]: 105.33 MEQ/L
- CHOLESTEROL [2]: 61.33 mg/dL
- CREATINE PHOSPHOKINASE [2]: 205.67 u/L
- CREATININE [2]: 0.17 mg/dL
- GLUCOSE [2]: 154 mg/dL
- LACTATE DEHYDROGENASE [2]: 135.33 u/L
- LIPASE [2]: 9 u/L
- PHOSPHORUS [2]: 11 mg/dL
- POTASSIUM [2]: 5.83 MEQ/L
- SODIUM [2]: 145.03 MEQ/L
- TOTAL BILIRUBIN [2]: 0.23 mg/dL
- TOTAL PROTEIN [2]: 5.97 G/DL
- URIC ACID [2]: 1.3 mg/dL
- ABSOLUTE BASOPHIL [3]: 0 CELLS/uL
- ABSOLUTE EOSINOPHIL [3]: 37 CELLS/uL
- ABSOLUTE LYMPHOCYTE [3]: 11284 CELLS/uL
- ABSOLUTE MONOCYTE [3]: 0 CELLS/uL
- ABSOLUTE SEGMENTED NEUTROPHIL [3]: 1012.33 CELLS/uL
- BASOPHIL [3]: 0%
- EOSINOPHIL [3]: 0.33%
- ERYTHROCYTE COUNT [3]: 5.01 x10E6/uL
- HEMATOCRIT [3]: 32.5%
- HEMOGLOBIN [3]: 12.27 G/DL
- LEUKOCYTE COUNT [3]: 12.33 x10E3/uL
- LYMPHOCYTE [3]: 91.33%
- MEAN CORPUSCULAR HEMOGLOBIN [3]: 24.53 pg
- MEAN CORPUSCULAR HEMOGLOBIN CONCENTRATION [3]: 37.73 G/DL
- MONOCYTE [3]: 0%
- NEUTROPHIL [3]: 8.33%
- NUCLEATED RED BLOOD CELLS [3]: 0 /100WBC
- PLATELET COUNT [3]: 1206.67 x10E3/uL
- ALANINE AMINOTRANSFERASE [3]: 77.33 u/L
- ALBUMIN [3]: 4.37 G/DL
- ALKALINE PHOSPHATASE [3]: 359.33 u/L
- BLOOD UREA NITROGEN [3]: 17.33 mg/dL
- CARBON DIOXIDE [3]: 27.33 mmol/L
- CHLORIDE [3]: 100 MEQ/L
- CHOLESTEROL [3]: 49.67 mg/dL
- CREATINE PHOSPHOKINASE [3]: 251 u/L
- CREATININE [3]: 0.21 mg/dL
- GLUCOSE [3]: 162 mg/dL
- LACTATE DEHYDROGENASE [3]: 163.67 u/L
- LIPASE [3]: 9 u/L
- PHOSPHORUS [3]: 10.77 mg/dL
- POTASSIUM [3]: 5.96 MEQ/L
- SODIUM [3]: 141.83 MEQ/L
- TOTAL BILIRUBIN [3]: 0.2 mg/dL
- TOTAL PROTEIN [3]: 5.9 G/DL
- URIC ACID [3]: 1.47 mg/dL
